Experimental data: US6514968B1, “Aminoalkoxy carbazoles for the treatment of cns diseases” (Pharmacia & Upjohn Company, priority 1999, dated 2003)

Molecular target: T1, cloned human 5-HT6 receptor (Homo sapiens, UniProt P50406)
T1 construct: host or cells: HeLa cells (G-418 selection), membrane preparation
Assay: 5-HT6 Receptor Binding Assay
Conditions: [3H]-lysergic acid diethylamide (LSD) radioligand, membranes of Hela cells containing the cloned human 5-HT6 receptor, SPA beads; estimated IC50 converted to Ki by Cheng-Prusoff
Method: 5-HT6 Receptor Binding Assay
Growth of Cells and Membrane Preparation
Hela cells containing the cloned human 5-HT6 receptor were acquired from Dr. David R. Sibley's laboratory in National Institute of Health (see Sibley, D. R., J. Neurochemistry, 66, 47-56, 1996). Cells were grown in high glucose Dulbecco's modified Eagle's medium, supplemented with L-glutamine, 0.5% sodium pyruvate, 0.3% penicillin-streptomycin, 0.025% G-418 and 5% Gibco fetal bovine serum and then were harvested, when confluent, in cold phosphate-buffered saline.
Harvested intact cells were washed once in cold phosphate-buffered saline. The cells were pelleted and resuspended in 100 ml of cold 50 mM Tris, 5 mM EDTA and 5 mM EGTA, pH 7.4. Homogenization was with a Vir Tishear generator, 4 cycles for 30 seconds each at setting 50. The homogenized cells were centrifuged at 700 RPM (1000×g) for 10 minutes and the supernatant was removed. The pellet was resuspended in 100 ml of the above buffer and rehomogenized for 2 cycles. The rehomogenized cells were then centrifuged at 700 RPM (1000×g) for 10 minutes and the supernatant was removed. The combined supernatant (200ml) was centrifuged at 23,000 RPM (80,000×g) for 1 hour in a Beckman Rotor (42.1 Ti). The membrane pellet was resupended in 50-8-ml of assay buffer containing HEPES 20 mM, MgCl2 10 mM, NaCl 150 mM, EDTA 1 mM, pH 7.4 and stored frozen in aliqouts at −70° C.
The radioligand binding assay used [^3H]-lysergic acid diethylamide (LSD). The assay was carried out in Wallac 96-well sample plates by the addition of 11 μl of the test sample at the appropriate dilution (the assay employed 11 serial concentrations of samples run in duplicate), 11 μl of radioligand, and 178 μl of a washed mixture of WGA-coated SPA beads and membranes in binding buffer. The plates were shaken for about 5 minutes and then incubated at room temperature for 1 hour. The plates were then loaded into counting cassettes and counted in a Wallac MicroBeta Trilux scintillation counter.
Binding Constant (Ki) Determination
Eleven serial dilutions of test compounds were distributed to assay plates using the PE/Cetus Pro/Pette pipetter. These dilutions were, followed by radioligand and the bead-membrane mixture prepared as described above. The specifically bound cpm obtained were fit to a one-site binding model using GraphPad Prism ver. 2.0. Estimated IC50 values were converted to Ki values using the Cheng-Prusoff equation (Cheng, Y. C. et al., Biochem. Pharmacol., 22, 3099-108, 1973).

T1 sequence (P50406 whole entry): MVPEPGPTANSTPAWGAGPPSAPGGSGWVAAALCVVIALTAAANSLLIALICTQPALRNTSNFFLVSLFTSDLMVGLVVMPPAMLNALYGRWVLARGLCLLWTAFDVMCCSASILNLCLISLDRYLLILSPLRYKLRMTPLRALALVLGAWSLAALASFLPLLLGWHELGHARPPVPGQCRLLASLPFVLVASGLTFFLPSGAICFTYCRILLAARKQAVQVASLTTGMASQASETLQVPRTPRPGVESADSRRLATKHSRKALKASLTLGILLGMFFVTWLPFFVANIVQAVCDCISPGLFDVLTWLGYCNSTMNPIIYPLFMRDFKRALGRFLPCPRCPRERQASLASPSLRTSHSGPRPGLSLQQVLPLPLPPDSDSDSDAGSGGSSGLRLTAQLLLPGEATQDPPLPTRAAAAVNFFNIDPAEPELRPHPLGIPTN

| Structure (SMILES) | Ki |
| --- | --- |
| c1ccc(Cn2c3ccccc3c3c(OCCNCc4ccccn4)cccc32)cc1 [Example 6, N-{2-[(9-Benzyl-9H-carbazol-4-yl)oxy]ethyl}-N-(2-pyridinylmethyl)amine] | 0.069 µM |
| c1ccc(Cn2c3ccccc3c3c(OCCN4CCOCC4)cccc32)cc1 [Example 8, 9-benzyl-4-[2-(4-morpholinyl)ethoxy]-9H-carbazole] | 0.398 µM |
| OCCN1CCN(CCOc2cccc3c2c2ccccc2n3Cc2ccccc2)CC1 [Example 9, 2-(4-{2-[(9-benzyl-9H-carbazol-4-yl)oxy]ethyl}-1-piperazinyl)-1-ethanol] | 0.062 µM |
| c1ccc(Cn2c3ccccc3c3c(OCCNCCCN4CCOCC4)cccc32)cc1 [Example 12] | 0.184 µM |
| OCCCCCNCCOc1cccc2c1c1ccccc1n2Cc1ccccc1 [Example 13, 5-({2-[(9-benzyl-9H-carbazol-4-yl)oxy]ethyl}amino)-1-pentanol] | 0.043 µM |
| CCCN(CCC)CCOc1cccc2c1c1ccccc1n2Cc1ccccc1 [Example 15, N-{2-[(9-benzyl-9H-carbazol-4-yl)oxy]ethyl}-N-propyl-1-propanamine] | 0.394 µM |
| c1ccc(CN2CCC(NCCOc3cccc4c3c3ccccc3n4Cc3ccccc3)CC2)cc1 [Example 16, 1-benzyl-N-{2-[(9-benzyl-9H-carbazol-4-yl)oxy]ethyl}-4-piperidinamine] | 0.148 µM |
| CC(C)(CO)NCCOc1cccc2c1c1ccccc1n2Cc1ccccc1 [Example 17, 2-({2-[(9-benzyl-9H-carbazol-4-yl)oxy]ethyl}amino)-2-methyl-1-propanol] | 0.164 µM |
| Clc1ccc(CCNCCOc2cccc3c2c2ccccc2n3Cc2ccccc2)cc1 [Example 18, 2-[(9-benzyl-9H-carbazol-4-yl)oxy]-N-(4-chlorophenethyl)-1-ethanamine] | 0.356 µM |
| c1ccc(Cn2c3ccccc3c3c(OCCNCC4CCCCC4)cccc32)cc1 [Example 19, 2-[(9-benzyl-9H-carbazol-4-yl)oxy]-N-(cyclohexylmethyl)-1-ethanamine] | 0.311 µM |
| CCC(O)CNCCOc1cccc2c1c1ccccc1n2Cc1ccccc1 (stereo not drawn) [Example 21, 1-({2-[(9-benzyl-9H-carbazol-4-yl)oxy]ethyl}amino)-2-butanol] | 0.072 µM |
| Fc1ccc(CCNCCOc2cccc3c2c2ccccc2n3Cc2ccccc2)cc1 [Example 22, 2-[(9-benzyl-9H-carbazol-4-yl)oxy]-N-(4-fluorophenethyl)-1-ethanamine] | 0.081 µM |
| O[C@H]1CCCC[C@@H]1NCCOc1cccc2c1c1ccccc1n2Cc1ccccc1 [Example 24, (1S,2S)-2-({2-[(9-benzyl-9H-carbazol-4-yl)oxy]ethyl}amino)cyclohexanol] | 0.085 µM |
| CCOC(=O)CCNCCOc1cccc2c1c1ccccc1n2Cc1ccccc1 [Example 25, ethyl 3-({2-[(9-benzyl-9H-carbazol-4-yl)oxy]ethyl}amino)propanoate] | 0.04 µM |
| c1ccc(Cn2c3ccccc3c3c(OCCNC4CCC4)cccc32)cc1 [Example 26, N-{2-[(9-benzyl-9H-carbazol-4-yl)oxy]ethyl}cyclobutanamine] | 0.047 µM |
| O=CNCCN1CCN(CCOc2cccc3c2c2ccccc2n3Cc2ccccc2)CC1 [Example 27, 2-(4-{2-[(9-benzyl-9H-carbazol-4-yl)oxy]ethyl}-1-piperazinyl)ethylformamide] | 0.138 µM |
| c1ccc(Cn2c3ccccc3c3c(OCCNCc4nc5ccccc5[nH]4)cccc32)cc1 [Example 28, N-(1H-benzimidazol-2-ylmethyl)-2-[(9-benzyl-9H-carbazol-4-yl)oxy]-1-ethanamine] | 0.072 µM |
| c1ccc(Cn2c3ccccc3c3c(OCCN4CCNCC4)cccc32)cc1 [Example 40, 9-Benzyl-4-[2-(1-piperazinyl)ethoxy]-9H-carbazole] | 0.088 µM |
| CCN(CC)CCOc1cccc2c1c1cc(C)ccc1n2Cc1ccc(F)cc1 [Example 48, N,N-Diethyl-N-(2-{[9-(4-fluorobenzyl)-6-methyl-9H-carbazol-4-yl]oxy}ethyl)amine] | 0.123 µM |
| NCCOc1cccc2c1c1ccccc1n2Cc1csc2ccc(Cl)cc12 [Example 50, 2-({9-[(5-Chloro-1-benzothiophen-3-yl)methyl]-9H-carbazol-4-yl}oxy)ethylamine] | 0.138 µM |
| Cc1nc(Cn2c3ccccc3c3c(OCCN)cccc32)cs1 [Example 51, 2-({9-[(2-Methyl-1,3-thiazol-4-yl)methyl]-9H-carbazol-4-yl}oxy)ethylamine] | 0.113 µM |

Next, values leading:

| Ki | Structure (SMILES) |
| --- | --- |
| 0.018 µM | CCN(CC)CCOc1cccc2c1c1cccc(C)c1n2Cc1ccccc1 [Example 4, N-{2-[(9-Benzyl-8-methyl-9H-carbazol-4-yl)oxy]ethyl}-N,N-diethylamine] |
| 0.038 µM | CCN(CC)CCOc1cccc2c1c1cccc(C)c1n2Cc1ccc(F)cc1 [Example 5, N,N-Diethyl-N-(2-{[9-(4-fluorobenzyl)-8-methyl-9H-carbazol-4-yl]oxy}ethyl)amine] |
| 0.02 µM | OCCCNCCOc1cccc2c1c1ccccc1n2Cc1ccccc1 [Example 10, 3-({2-[(9-benzyl-9H-carbazol-4-yl)oxy]ethyl}amino)-1-propanol] |
| 0.023 µM | C=CCNCCOc1cccc2c1c1ccccc1n2Cc1ccccc1 [Example 11, N-{2-[(9-benzyl-9H-carbazol-4-yl)oxy]ethyl}-2-propen-1-amine] |
| 0.04 µM | CCCNCCOc1cccc2c1c1ccccc1n2Cc1ccccc1 [Example 14, N-{2-[(9-benzyl-9H-carbazol-4-yl)oxy]ethyl}-1-propanamine] |
| 0.037 µM | c1ccc(Cn2c3ccccc3c3c(OCCNCCN4CCOCC4)cccc32)cc1 [Example 20, 2-[(9-benzyl-9H-carbazol-4-yl)oxy]-N-[2-(4-morpholinyl)ethyl]-1-ethanamine] |
| 0.032 µM | OCCOCCNCCOc1cccc2c1c1ccccc1n2Cc1ccccc1 [Example 23, 2-[2-({2-[(9-benzyl-9H-carbazol-4-yl)oxy]ethyl}amino)ethoxy]-1-ethanol] |
| 0.011 µM | OC1CCN(CCOc2cccc3c2c2ccccc2n3Cc2ccccc2)CC1 [Example 29, 1-{2-[(9-benzyl-9H-carbazol-4-yl)oxy]ethyl}-4-piperidinol] |
| 0.012 µM | CN1CCN(CCOc2cccc3c2c2ccccc2n3Cc2ccccc2)CC1 [Example 30, 9-benzyl-4-[2-(4-methyl-1-piperazinyl)ethoxy]-9H-carbazole] |
| 0.021 µM | c1ccc(Cn2c3ccccc3c3c(OCCNC4CC4)cccc32)cc1 [Example 31, N-{2-[(9-benzyl-9H-carbazol-4-yl)oxy]ethyl}-N-cyclopropylamine] |
| 0.023 µM | NCCOc1cccc2c1c1ccccc1n2Cc1ccccc1 [Example 35, 2-[(9-Benzyl-9H-carbazol-4-yl)oxy]ethylamine] |
| 0.011 µM | CCNCCOc1cccc2c1c1ccccc1n2Cc1ccccc1 [Example 37, 2-[(9-benzyl-9H-carbazol-4-yl)oxy]-N-ethyl-1-ethanamine] |
| 0.0069 µM | c1ccc(Cn2c3ccccc3c3c(OCCN4CCCC4)cccc32)cc1 [Example 38, 9-Benzyl-4-[2-(1-pyrrolidinyl)ethoxy]-9H-carbazole] |
| 0.0066 µM | CCN(CC)CCOc1cccc2c1c1cc(C)ccc1n2Cc1ccccc1 [Example 45, N-{2-[(9-Benzyl-6-methyl-9H-carbazol-4-yl)oxy]ethyl}-N,N-diethylamine] |
| 0.024 µM | NCCOc1c(Cl)ccc2c1c1ccccc1n2Cc1ccccc1 [Example 52, 2-[(9-Benzyl-3-chloro-9H-carbazol-4-yl)oxy]ethylamine] |
